Results taken from patent US7989480B2, “Aryl amino acid derivatives as inhibitors for treating inflammation” (Decode Genetics EHF, priority 2006, dated 2011).
Structures can show the parent of a compound that is named as a salt. Where two headings read alike, the source gives them in different places.

Experiments:
[1] = target: T1, LTA4H (leukotriene A4 hydrolase) (Homo sapiens, UniProt P09960); assay: LTA4H enzyme inhibition (EnzIC50); type: biochemical
T1 sequence (P09960 1-611): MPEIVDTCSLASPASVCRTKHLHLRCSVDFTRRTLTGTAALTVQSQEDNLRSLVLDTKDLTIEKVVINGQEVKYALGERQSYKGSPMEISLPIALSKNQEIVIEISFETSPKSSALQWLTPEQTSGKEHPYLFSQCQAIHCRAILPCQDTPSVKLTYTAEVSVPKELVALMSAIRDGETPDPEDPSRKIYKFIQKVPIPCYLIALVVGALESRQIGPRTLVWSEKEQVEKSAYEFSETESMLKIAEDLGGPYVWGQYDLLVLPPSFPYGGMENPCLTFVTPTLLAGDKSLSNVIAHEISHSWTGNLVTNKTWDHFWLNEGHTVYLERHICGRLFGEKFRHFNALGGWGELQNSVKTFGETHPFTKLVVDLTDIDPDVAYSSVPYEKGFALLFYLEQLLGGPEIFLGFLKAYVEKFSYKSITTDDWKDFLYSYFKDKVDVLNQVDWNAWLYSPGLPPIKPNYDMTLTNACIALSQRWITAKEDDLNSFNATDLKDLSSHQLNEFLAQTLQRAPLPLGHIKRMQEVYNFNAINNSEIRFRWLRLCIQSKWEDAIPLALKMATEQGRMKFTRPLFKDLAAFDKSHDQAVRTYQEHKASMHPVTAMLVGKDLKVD

[2] = system: ionophore-induced LTB4 production; conditions: oral administration, mouse blood ex vivo; cited from earlier work
[3] = system: ionophore-induced LTB4 production; conditions: oral administration, rat peritoneum in vivo; cited from earlier work
[4] = system: colitis symptoms; conditions: eight weeks of treatment, primate model; cited from earlier work
[5] = system: hWB; assay: hWB assay; type: cell-based; conditions: Homo sapiens

COc1ccc(Oc2ccc(C[C@H](N)CO)cc2)cc1 [Example 19, (S)-2-Amino-3-[4-(4-methoxyphenoxy)-phenyl]-propan-1-ol hydrochloric acid salt]
IC50 [1]: < 5 µM

CN(CCCOc1ccc(Cc2ccccc2)cc1)CCC(=O)O.Cl [SC57461]
inhibition of ionophore-induced LTB4 production [2]: inhibition of ionophore-induced LTB4 production
inhibition of ionophore-induced LTB4 production [3]: inhibition of ionophore-induced LTB4 production
colitis symptoms [4]: significantly improved colitis symptoms

N[C@@H](Cc1ccc(Oc2ccc(Oc3ccccc3)cc2)cc1)C(O)C(=O)O (stereo partly drawn) [Example 10, (3S)-3-Amino-2-hydroxy-4-[4-(4-phenoxyphenoxy)phenyl]butanoic acid hydrochloride]
IC50 [1]: < 5 µM

CN[C@H](CO)Cc1ccc(Oc2ccc(Oc3ccccc3)cc2)cc1 [Example 8, (2S)-2-(Methylamino)-3-[4-(4-phenoxyphenoxy)phenyl]propan-1-ol hydrochloride]
IC50 [1]: 5 to 20 µM

N[C@H](CO)Cc1ccc(Oc2ccc(Oc3ccccc3)cc2)cc1 [Example 4, (S)-2-Amino-3-[4-(4-phenoxy-phenoxy)-phenyl]-propan-1-ol hydrochloride]
IC50 [5]: 5 to 20 µM
IC50 [1]: < 5 µM

CN[C@H](CO)Cc1ccc(Oc2ccc(Cc3ccccc3)cc2)cc1 [Example 9, (2S)-3-[4-(4-Benzylphenoxy)phenyl]-2-(methylamino)propan-1-ol hydrochloride]
IC50 [1]: 5 to 20 µM

N[C@@H](CO)Cc1ccc(Oc2ccc(Oc3ccccc3)cc2)cc1 [Example 3, (R)-2-Amino-3-[4-(4-phenoxy-phenoxy)-phenyl]-propan-1-ol hydrochloride]
IC50 [1]: < 5 µM

COC(=O)[C@H](N)Cc1ccc(Oc2ccc(C(=O)c3ccccc3)cc2)cc1 [Example 2, (R)-2-Amino-3-[4-(4-benzoyl-phenoxy)-phenyl]-propionic acid methyl ester hydrochloride]
IC50 [1]: < 5 µM

N[C@@H](Cc1ccc(Oc2ccc(Oc3ccccc3)cc2)cc1)C(=O)O [Example 6, (2S)-2-Amino-3-[4-(4-phenoxyphenoxy)phenyl]propanoic acid hydrochloride]
IC50 [5]: < 5 µM
IC50 [1]: < 5 µM

N[C@@H](Cc1ccc(Oc2ccc(Oc3ccc(-c4nccs4)cc3)cc2)cc1)C(=O)O [Example 11, (S)-2-Amino-3-{4-[4-(4-thiazol-2-yl-phenoxy)-phenoxy]-phenyl}-propionic acid]
IC50 [1]: < 5 µM

N[C@H](CO)Cc1ccc(Oc2ccc(Oc3ccc(-c4nccs4)cc3)cc2)cc1 [Example 12, (S)-2-Amino-3-{4-[4-(4-thiazol-2-yl-phenoxy)-phenoxy]-phenyl}-propan-1-ol]
IC50 [5]: < 5 µM
IC50 [1]: < 5 µM

N[C@@H](C(=O)O)c1ccc(Oc2ccc(Cc3ccccc3)cc2)cc1 [Example 15, (R)-Amino-[4-(4-benzyl-phenoxy)-phenyl]-acetic acid hydrochloride]
IC50 [1]: < 5 µM

COC(=O)[C@H](N)Cc1ccc(Oc2ccc(Oc3ccccc3)cc2)cc1 [Example 1, (R)-2-Amino-3-[4-(4-phenoxy-phenoxy)-phenyl]-propionic acid methyl ester hydrochloride]
IC50 [1]: 5 to 20 µM

N[C@H](CNO)Cc1ccc(Oc2ccc(Cl)cc2)cc1 [Example 21, N-{(S)-2-amino-3-[4-(4-chloro-phenoxy)-phenyl]-propyl}-hydroxyamine HCl salt]
IC50 [1]: < 5 µM

CC(=O)N(O)C[C@@H](N)Cc1ccc(Oc2ccc(Cl)cc2)cc1 [Example 22, N-{(S)-2-amino-3-[4-(4-chloro-phenoxy)-phenyl]-propyl}-N-hydroxy-acetamide HCl salt]
IC50 [5]: < 5 µM
IC50 [1]: < 5 µM

N[C@@H](Cc1ccc(Oc2ccc(Cc3ccc(Cl)cc3)cc2)cc1)C(=O)O [Example 5, S)-2-Amino-3-{4-[4-(4-chloro-benzyl)-phenoxy]-phenyl}-propionic acid hydrochloride]
IC50 [1]: 5 to 20 µM

N[C@H](CNO)Cc1ccc(Oc2ccc(Oc3ccc(Cl)cc3)cc2)cc1 [Example 14]
IC50 [5]: < 5 µM
IC50 [1]: < 5 µM

N[C@H](CO)Cc1ccc(Oc2ccc(Cc3ccccc3)cc2)cc1 [Example 20, (S)-2-Amino-3-[4-(4-benzylphenoxy)-phenyl]-propan-1-ol hydrochloric acid salt]
IC50 [5]: < 5 µM
IC50 [1]: < 5 µM
